From paper PMC5764437, “Discovery of novel, orally bioavailable, antileishmanial compounds using phenotypic screening” (PLoS Neglected Tropical Diseases, 2017)
Converted amounts (≈) assume the structure as drawn. “Also recorded” adds a separate entry of the source. Read-outs that look alike come from different tables or passages of the source.

Legend:
[1] = system: L. mexicana intracellular amastigotes; experiment: Growth inhibition of intracellular amastigotes in J774A.1 macrophages (Renilla luciferase luminescence); format: cell-based; conditions: Leishmania mexicana, J774.A1; intracellular amastigotes in J774A.1 macrophages; mean ± standard deviation, n = 2; read-out: L. mexicana EC50
Description: (§1) L. mexicana (MNYZ/BZ/62/M379) or L. donovani (LdBob strain) parasites expressing the Renilla luciferase gene from a rRNA gene locus were used to infect J774A.1 macrophages. Growth of intracellular amastigotes was measured using a luminescence assay, as detailed previously. The growth inhibitor activities of compounds were tested against bloodstream form Lister 427 T. brucei in 96-well plates containing 1 X 10^5 parasites per well in 0.2 ml HMI-11 medium (Gibco/Thermo Fisher). Compounds (2 μl volumes in DMSO) were added to the parasites using serial 3-fold dilutions to cover a range of concentrations from about 10 μM to 1 nM. After 48 h incubation at 37°C under a humidified 5% CO2 atmosphere, 10 μl of 10% Triton X-100 and 100 X stock SYBR Green I (Sigma-Aldrich) in PBS was added and florescence measured (excitation 497 nm; emission 520 nm) after 1 h incubation in the dark using a Spectra Max Gemini XPS fluorimeter (Molecular Devices). Data were log transformed and EC50 values were determined using GraphPad Prism 6 (GraphPad Software). In the absence of growth inhibiting compounds, the parasites grew from an initial density of 5 X 10^5 cells/mL to ~3 X 10^6 cells/mL.
[…]. These were chosen as candidates for further study. From these 230 compounds, we were able to repurchase 113 from commercial vendors. These compounds were characterized for purity by ultra-performance liquid chromatography using ultraviolet spectroscopy and evaporative light scattering detection and identity by mass spectrometry. All validated compounds were profiled for activity against intracellular amastigotes, the disease-causing stage of the life cycle. Intracellular amastigote activity was determined using a strain of L. mexicana in which the Renilla luciferase gene was integrated into the rRNA locus, allowing robust expression for measuring amastigote growth within cultured macrophages. All 113 compounds were applied at 1 μM concentration for 96 h to J774A.1 macrophages infected with L. mexicana luciferase-expressing parasites. […].
Next, we generated dose-response curves for these 55 compounds against intracellular amastigotes and independently against J774A.1 macrophages to establish the relative potency of each compound against the pathogen and its host cell. […]. The nine remaining compounds, each representing a unique chemical scaffold (compounds 1–9, Fig 3), were designated top hits (Fig 1).

[2] = system: bloodstream form Lister 427 T. brucei; experiment: Growth inhibition of T. brucei bloodstream forms (SYBR Green I); format: cell-based; conditions: Trypanosoma brucei, bloodstream form; mean ± standard deviation, n = 2; read-out: T. brucei EC50
Description: as §1

[3] = Solubility in aqueous buffer; format: physicochemical; conditions: citrate phosphate buffered saline, pH 7.4, aqueous buffer, kinetic from dmso stock
Description: Solubility assays were carried out on a Biomek FX lab automation workstation (Beckman Coulter, Inc., Fullerton, CA) using μSOL Evolution software (pION Inc.). Compound stock (10 mM in DMSO, 10 μL) was added to 1-propanol (190 μL) to make a reference stock plate. Reference stock solution (5 μL) was mixed with 1-propanol (70 μL) and citrate phosphate buffered saline (pH 7, 75 μL) to make the reference plate which was then measured with UV detection. Test compound stock (10 mM, 6 μL) was added to citrate phosphate buffered saline (594 μL) in a 96-well storage plate and mixed. […] The suspension was then filtered through a 96-well filter plate (pION Inc.). Filtrate (75 μL) was mixed with 1-propanol (75 μL) to make the sample plate, and the UV spectrum (250 nm −500 nm) of the sample plate was recorded. Calculation of solubility was carried out using μSOL Evolution software based on the AUC of the UV spectrum of the sample plate and the reference plate. All compounds were tested in triplicate.

Caco-2 cells = experiment: Caco-2 permeability assay; format: in vitro ADME; conditions: predicted from solubility and membrane permeability
J774A.1 macrophages = experiment: Cytotoxicity to J774A.1 macrophages (dose-response); format: cell-based; conditions: for EC50: Mus musculus, J774.A1, host macrophage, tested up to 10 μM, mean ± standard deviation, n = 2, read-out: J774A.1 EC50
Description: Cytotoxicity of compounds to J774.A1 macrophages was determined by dose-response curves as described previously. In the absence of growth inhibitors or DMSO, the macrophages increased in number ~6-fold over 96 h in Minimum Essential Medium, employed for both macrophage infections and the toxicity assays.

[4] = system: Trypanosoma cruzi CL Brener epimastigotes; experiment: Growth inhibition of Trypanosoma cruzi epimastigotes (SYBR Green); format: cell-based; conditions: 72 h, 10 μM to 1 nM
Description: Trypanosoma cruzi CL Brener epimastigotes were obtained from Dr. Fred Buckner of the Department of Medicine at the University of Washington. T. cruzi epimastigotes were grown in liver infusion tryptose medium and seeded in a 96-well plate at 10^5 epimastigotes per well in 100 μl medium. For each well, 1 μl of compound in DMSO at 100X the desired final concentration was added. Epimastigotes were exposed to a range of compound concentrations from 10 μM to 1 nM to determine EC50. Plates were incubated at 26°C for 72 h, then 10 μl 50X SYBR Green in 1% Triton X-100 was added to each well followed by incubation with shaking at room temperature for 30 minutes. Fluorescence was read (excitation 485nm, emission 535nm) with the Victor^2 multiplate reader (PerkinElmer). All data processing and visualization were performed using GraphPad Prism 6 software.

[5] = system: L. donovani intracellular amastigotes; experiment: Growth inhibition of intracellular amastigotes in J774A.1 macrophages (Renilla luciferase luminescence); format: cell-based; conditions: Leishmania donovani, J774.A1; intracellular amastigotes in J774A.1 macrophages; mean ± standard deviation, n = 2; read-out: L. donovani EC50
Description: as §1

[6] = Dose-ranging tolerability / 10-day toxicity study in mice; format: in vivo, mouse; conditions: oral, 30 mg/kg
[7] = system: bloodstream form Lister 427 T. brucei; design: method as in PMID 23484493; conditions: bloodstream form of Trypanosoma brucei; read-out: T. brucei bloodstream form EC50 (previously reported); cited from earlier work

| Structure (SMILES) | EC50 [1] [nM] | EC50 [2] [µM] | solubility at 18 h [3] [µM] | Predicted absorption across the intestinal epithelium (Caco-2 cells) | EC50 (J774A.1 macrophages) [nM] | Reduction in viability / inhibition of host macrophage J774A.1 in dose-response studies (J774A.1 macrophages; up to 10 μM) | T. cruzi epimastigotes EC50 [4] | EC50 [5] [nM] | Tolerability (weight loss, appetite, other toxicity) [6] | EC50 ([4]; Trypanosoma cruzi, read-out: T. cruzi epimastigotes EC50) [nM] | EC50 [7] [nM] |
| --- | --- | --- | --- | --- | --- | --- | --- | --- | --- | --- | --- |
| COc1ccc(-c2c(C(F)(F)F)oc3c(CN4CCN(C)CC4)c(O)ccc3c2=O)cc1OC [Compound 4] | 80 | 11 ± 1 | 67 (≈ 32.1 µg/mL) | ~ 85% | > 10000 | no reduction in viability; also recorded: no inhibition of J774A.1 macrophages up to 10 μM concentration | no inhibition | 600 ± 500 | – | – | – |
| Cc1ccc(-c2nc3ccccc3s2)cc1NC(=O)c1cc([N+](=O)[O-])c(N2CCN(C)CC2)cc1Cl [Compound 5] | 22 | – | 0.3 (≈ 0.157 µg/mL) | – | 1100 ± 800 | – | – | 29 ± 27 | suppressed appetite was resolved by dose reduction to 30 mg/kg; also recorded: No weight loss or other toxicity was observed | 86 ± 30 | 27 |
